What was measured:
[1] = target: influenza neuraminidase (N2) (Influenza A virus, UniProt P06820); test: biochemical; type: biochemical, influenza virus Type A
[2] = target: Influenza NA Type B B/Lee (Influenza B virus, UniProt P03474); test: Inhibition of influenza neuraminidase (B/Lee); type: biochemical
[3] = cited from earlier work
[4] = test system: HA; details: cited from earlier work
[5] = target: neuraminidase from the H1N9 strain of influenza (Influenza A virus, UniProt P03472); test: biochemical
[6] = Oral bioavailability; type: in vivo

CCC(CC)Nc1cc(C(=O)O)ccc1N1C(=O)CCC1(CN)CO (stereo not shown) [Compound B]
Effectiveness relative to example 8 for the inhibition of influenza neuraminidase (N2) [1]: approximately twice as effective as example 8
IC50 [1]: 0.04 µM
IC50 [2]: 49 µM

CC(=O)N[C@H]1[C@H]([C@H](O)[C@H](O)CO)OC(C(=O)O)=C[C@@H]1O [DANA, 2-deoxy-2,3-didehydro-N-acetylneuraminic acid]
Activity in vivo [3]: inactive in vivo
Inhibition in vitro [4]: inhibit HA in vitro

O=C(O)c1ccc(N2CCCC2=O)cc1 [Example 1, 1-(4-Carboxyphenyl)pyrrolidin-2-one]
melting point: 244 to 246 °C
IC50 [5]: > 7000 µM

NCC1CCC(=O)N1c1ccc(C(=O)O)cc1N=C(N)N (stereo not shown) [Example 4, 1-1-{2-{[(Amino)(imino)methyl]amino}-4-carboxyphenyl}-5-(aminomethyl)pyrrolidin-2-one]
IC50 [5]: 2600 µM

O=C(O)c1ccc(N2C(=O)CCC2(CO)CO)cc1 [Example 5, 1-(4-Carboxyphenyl)-5,5-bis-(hydroxymethyl)pyrrolidin-2-one]
IC50 [5]: 700 µM

N=C(N)Nc1cc(C(=O)O)ccc1N1C(=O)CCC1(CO)CO [Example 6, 1-{2-{[(Amino)(imino)methyl]amino}-4-carboxyphenyl}-5,5-bis-(hydroxymethyl)-pyrrolidin-2-one]
IC50 [5]: 5 µM

CCC(CC)Nc1cc(C(=O)O)ccc1N1CCCC1=O [Example 7, 1-[4-Carboxy-2-(3-pentylamino)phenyl]pyrrolidin-2-one]
IC50 [5]: 220 µM

CCC(CC)Nc1cc(C(=O)O)ccc1N1C(=O)CCC1(CO)CO [Example 8, 1-[4-Carboxy-2-(3-pentylamino)phenyl]-5,5-bis-(hydroxymethyl)pyrrolidin-2-one]
IC50 [1]: 0.071 µM
Oral bioavailability [6]: orally bioavailable
IC50 [2]: 93 µM
IC50 [5]: 0.048 µM

CCCC(CC)Nc1cc(C(=O)O)ccc1N1C(=O)CCC1(CO)CO (stereo not shown) [Example 9, 1-[4-Carboxy-2-(3-hexylamino)phenyl]-5,5-bis-(hydroxymethyl)pyrrolidin-2-one]
IC50 [5]: 116 µM

CCCC(CCC)Nc1cc(C(=O)O)ccc1N1C(=O)CCC1(CO)CO [Example 10, 1-[4-Carboxy-2-(4-heptylamino)phenyl]-5,5-bis-(hydroxymethyl)pyrrolidin-2-one]
IC50 [1]: 8.1 µM
IC50 [5]: 5.5 µM

CCC(CC)CNc1cc(C(=O)O)ccc1N1C(=O)CCC1(CO)CO [Example 11, 1-{4-Carboxy-2-[3-pentyl)methylaminolphenyl}-5,5-bis-(hydroxymethyl)pyrrolidin-2-one.]
IC50 [1]: 3.5 µM

CCCNc1cc(C(=O)O)ccc1N1C(=O)CCC1(CO)CO [Example 12]
IC50 [1]: 15.5 µM

CCC(=O)Nc1cc(C(=O)O)ccc1N1C(=O)CCC1(CO)CO [Example 14, 1-[4-Carboxy-2-(ethylcarbonylamino)phenyl]-5,5-bis(hydroxymethyl)pyrrolidin-2-one]
IC50 [1]: 1.5 µM

CCC(C)C(=O)Nc1cc(C(=O)O)ccc1N1C(=O)CCC1(CO)CO (stereo not shown) [Example 15, 1-{[4-Carboxy-2-(1-methylpropyl)carbonylamino]pheny}-5,5-bis(hydroxymethyl)-pyrrolidin-2-one]
IC50 [1]: 0.18 µM

CCC(CC)C(=O)Nc1cc(C(=O)O)ccc1N1C(=O)CCC1(CO)CO [Example 16]
IC50 [1]: 0.82 µM

CCC(C)C(=O)Nc1cc(C(=O)O)ccc1N1C(=O)CCC1(CN)CO (stereo not shown) [Example 17, 5-Aminomethyl-1-{[4-carboxy-2-(1-methylpropyl)carbonylamino]phenyl}-5-hydroxymethylpyrrolidin-2-one]
IC50 [1]: 6 µM

CCC(CC)Nc1cc(C(=O)O)ccc1N1C(=O)CCC1(CO)CCO (stereo not shown) [Example 18, 1-[4-Carboxy-2-(1-ethylpropylamino)phenyl]-5-hydroxyethyl-5-hydroxymethyl-pyrrolidin-2-one]
IC50 [1]: 184 µM

Source: patent publication US6509359B1, “Pyrrolidin-2-one compounds and their use as neuraminidase inhibitors” (priority 1997, dated 2003)
